Experimental data taken from ChEMBL document CHEMBL3046561, “Feeding deterrents from Dictamnus dasycarpus Turcz against two stored-product insects” (J Agric Food Chem, 2002).

What was measured:
Type in all cases: functional, organism-based
[1] = tested on: Sitophilus zeamais; assay: Antifeedant activity against adult of Sitophilus zeamais after 3 days
[2] = tested on: Tribolium castaneum; assay: Antifeedant activity against adult of Tribolium castaneum (red flour beetle) after 3 days
[3] = tested on: Tribolium castaneum; assay: Antifeedant activity against larvae of Tribolium castaneum (red flour beetle) after 3 days

| SMILES | EC50 [1] [ppm] | EC50 [2] [ppm] | EC50 [3] [ppm] |
| --- | --- | --- | --- |
| C/C=C(\C)C(=O)O[C@H]1C[C@@H](OC(C)=O)[C@@]2(C(=O)OC)CO[C@H]3[C@@H](O)[C@@](C)([C@]45O[C@@]4(C)[C@@H]4C[C@H]5O[C@@H]5OC=C[C@@]54O)[C@H]4[C@]1(CO[C@]4(O)C(=O)OC)[C@@H]32 [AZADIRACHTIN A] | 91.7 | 57.6 | 47.9 |
| CC(=O)O[C@@H]1C[C@H](O)[C@@]23CO[C@@H](O)[C@]1(C)[C@@H]2C[C@@H](O)[C@]1(C)[C@@H]3C(=O)[C@H](OC(C)=O)[C@@]2(C)[C@H](c3ccoc3)C[C@H]3O[C@]321 [TOOSENDANIN] | 100 | 66 | 48 |
